# Assay results from US10807952B2 (Achillion Pharmaceuticals, Inc., priority 2015, dated 2020).
# Structures can show the parent of a compound that is named as a salt.
# Target: Human Factor D (Homo sapiens (Human), UniProt P00746)
# Assay: Human Factor D assay (Z-L-Lys-SBzl / DTNB, absorbance at 405 nm)
# Type: biochemical
# Details: Table 3; Human Factor D 80 nM, assay of Example 13
# Outline: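 Human serum-purified Factor D (80 nM final) was preincubated with compound for 5 min at room temperature in 50 mM Tris, 1M NaCl, pH 7.5. IC50 came from nonlinear regression of rate versus compound concentration.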
# Human Factor D, sequence (P00746 26-253): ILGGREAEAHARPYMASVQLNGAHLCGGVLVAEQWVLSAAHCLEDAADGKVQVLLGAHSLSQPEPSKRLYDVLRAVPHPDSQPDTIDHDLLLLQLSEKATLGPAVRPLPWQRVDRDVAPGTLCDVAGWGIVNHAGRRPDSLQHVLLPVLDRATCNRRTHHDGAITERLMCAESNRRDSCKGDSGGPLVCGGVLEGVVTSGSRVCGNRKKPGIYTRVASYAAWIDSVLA
row,Structure (SMILES),IC50 [nM]
1,"NC(=O)c1nn(CC(=O)N2C[C@H](F)C[C@H]2C(=O)Nc2cccc(-c3ccc4nc(C(=O)O)[nH]c4c3Cl)c2F)c2ccccc12 [Compound 62, 6-(3-((2S,4R)-1-(2-(3-carbamoyl-1H-indazol-1-yl)acetyl)-4-fluoropyrrolidine-2-carboxamido)-2-fluorophenyl)-7-chloro-1H-benzo[d]imidazole-2-carboxylic acid]",< 1000
2,"CC(=O)c1cn(CC(=O)N2C[C@H](F)C[C@H]2C(=O)Nc2cccc(-c3ccc4[nH]cnc4c3Cl)c2F)c2ccccc12 [Compound 2, (2S,4R)-1-(2-(3-acetyl-1H-indol-1-yl)acetyl)-N-(3-(4-chloro-1H-benzo[d]imidazol-5-yl)-2-fluorophenyl)-4-fluoropyrrolidine-2-carboxamide]",< 1000
3,"NC(=O)c1cn(CC(=O)N2C[C@H](F)C[C@H]2C(=O)Nc2cccc(-c3ccccc3Cl)c2F)n2ccnc12 [Compound 58, 5-(2-((2S,4R)-2-(2′-chloro-2-fluorobiphenyl-3-ylcarbamoyl)-4-fluoropyrrolidin-1-yl)-2-oxoethyl)-5H-imidazo[1,2-b]pyrazole-7-carboxamide]",1000 to 10000
4,"NC(=O)c1nn(CC(=O)N2C[C@H](F)C[C@H]2C(=O)Nc2cccc(-c3ccc4nc(N)[nH]c4c3Cl)c2F)c2ccccc12 [Compound 26, 1-(2-((2S,4R)-2-(3-(2-amino-7-chloro-1H-benzo[d]imidazol-6-yl)-2-fluorophenyl-carbamoyl)-4-fluoropyrrolidin-1-yl)-2-oxoethyl)-1H-indazole-3-carboxamide]",< 1000
5,"NC(=O)c1nn(CC(=O)N2C[C@H](F)C[C@H]2C(=O)Nc2cccc(-c3ccc4cn[nH]c4c3)c2F)c2ccccc12 [Compound 28, 1-(2-((2S,4R)-4-fluoro-2-(2-fluoro-3-(1H-indazol-6-yl)phenylcarbamoyl)pyrrolidin-1-yl)-2-oxoethyl)-1H-indazole-3-carboxamide]",< 1000
6,"NC(=O)c1nn(CC(=O)N2C[C@H](F)C[C@H]2C(=O)Nc2cccc(-c3ccccc3Cl)c2F)c2cc(C(F)(F)F)sc12 [Compound 33, 1-(2-((2S,4R)-2-(2′-chloro-2-fluorobiphenyl-3-ylcarbamoyl)-4-fluoropyrrolidin-1-yl)-2-oxoethyl)-5-(trifluoromethyl)-1H-thieno[3,2-c]pyrazole-3-carboxamide]",< 1000
7,"NC(=O)c1nn(CC(=O)N2C[C@H](F)C[C@H]2C(=O)Nc2cccc(Br)n2)c2cc(Cn3cc(C4CC4)nn3)sc12 [Compound 29, 1-(2-((2S,4R)-2-(6-bromopyridin-2-ylcarbamoyl)-4-fluoropyrrolidin-1-yl)-2-oxoethyl)-5-((4-cyclopropyl-1H-1,2,3-triazol-1-yl)methyl)-1H-thieno[3,2-c]pyrazole-3-carboxamide]",< 1000
8,NC(=O)c1nn(CC(=O)N2C[C@H](F)C[C@H]2C(=O)Nc2cccc(-c3ccccc3Cl)c2F)c2cc(S(F)(F)(F)(F)F)ccc12 [Compound 45],< 1000
9,"CC(=O)c1cn(CC(=O)N2C[C@H](F)C[C@H]2C(=O)Nc2cccc(Br)n2)c2ccc(S(C)(=N)=O)cc12 (stereo partly drawn) [Compound 70, (2S,4R)-1-(2-(3-Acetyl-5-(S-methylsulfonimidoyl)-1H-indol-1-yl)acetyl)-N-(6-bromopyridin-2-yl)-4-fluoropyrrolidine-2-carboxamide hydrochloride]",< 1000

# Same assay, conditions: Table 4; Human Factor D 80 nM, assay of Example 13
row,Structure (SMILES),IC50 [nM]
1,"CC(=O)c1nn(CC(=O)N2C[C@H](F)C[C@H]2C(=O)Nc2cccc(-c3ccc4c(c3)CCC(=O)N4)c2F)c2ccccc12 [Compound 82, (2S,4R)-1-(2-(3-acetyl-1H-indazol-1-yl)acetyl)-4-fluoro-N-(2-fluoro-3-(2-oxo-1,2,3,4-tetrahydroquinolin-6-yl)phenyl)pyrrolidine-2-carboxamide]",< 1000
2,"CC(=O)c1nn(CC(=O)N2C[C@H](F)C[C@H]2C(=O)Nc2cccc(-c3ccc4sc(N)nc4c3)c2F)c2ccccc12 [Compound 100, (2S,4R)-1-(2-(3-acetyl-1H-indazol-1-yl)acetyl)-N-(3-(2-aminobenzo[d]thiazol-5-yl)-2-fluorophenyl)-4-fluoropyrrolidine-2-carboxamide]",< 1000
3,"Cc1cccc(NC(=O)[C@@H]2CCC(F)CCN2C(=O)Cn2cc(C(N)=O)c3cc(C4=CCCCC4)ccc32)n1 (stereo partly drawn) [Compound 106, 5-(cyclohex-1-en-1-yl)-1-(2-((2S)-5-fluoro-2-((6-methylpyridin-2-yl)carbamoyl)azepan-1-yl)-2-oxoethyl)-1H-indole-3-carboxamide]",> 10000
4,"CC(=O)c1nn(CC(=O)N2C[C@H](F)C[C@H]2C(=O)Nc2cccc(-c3ccc4ncn(CCN)c4c3Cl)c2F)c2ccccc12 [Compound 84, (2S,4R)-1-(2-(3-acetyl-1H-indazol-1-yl)acetyl)-N-(3-(1-(2-aminoethyl)-7-chloro-1H-benzo[d]imidazol-6-yl)-2-fluorophenyl)-4-fluoropyrrolidine-2-carboxamide]",1000 to 10000
5,"NC(=O)c1cc(O)cc(CC(=O)N2C[C@H](F)C[C@H]2C(=O)Nc2cccc(-c3ccccc3Cl)c2F)c1 [Compound 78, (2S,4R)-1-(2-(3-carbamoyl-5-hydroxyphenyl)acetyl)-N-(2′-chloro-2-fluoro-[1,1′-biphenyl]-3-yl)-4-fluoropyrrolidine-2-carboxamide]",< 1000
6,"Cc1c(Br)c(C(N)=O)nn1CC(=O)N1C[C@H](F)C[C@H]1C(=O)Nc1cccc(Br)n1 [Compound 107, 4-Bromo-1-(2-((2S,4R)-2-((6-bromopyridin-2-yl)carbamoyl)-4-fluoropyrrolidin-1-yl)-2-oxoethyl)-5-methyl-1H-pyrazole-3-carboxamide]",1000 to 10000
